Reference: patent publication US7935726B1, “Tricyclic pyrones” (Kansas State University Research Foundation, priority 1999, dated 2011)

Tests used:
ACAT = assay: inhibition of ACAT; assay type: biochemical
MC65 cells = assay: protection from APP C99-induced cell death in MC65 cells; assay type: cell-based; details: for protection of MC65 cells from death (in words): MC65 cells conditionally expressing partial APP fusion protein, absence of tetracycline; for EC50: MC65 cells in the absence of tetracycline
Excerpt: The reported procedures for the inhibitory activities of ACAT (Tomoda, H.; Nishida, H.; Masuma, R.; Cao, J.; Okuda, S.; Omura, S. J. Antibiot. 1991, 44, 136-143), CETP (Tomoda, H.; Tabata, N.; Masuma, R.; Si, S.-Y.; Omura, S. J. Antibiot. 1998, 51, 618-623; D. H. Hua et al. Tetrahedron 2003, 59, 4795-4803), L1210 tumor cells (Perchellet, E. M.; Ladesich, J. B.; Magill, M. J.; Chen, Y.; Hua, D. H.; Perchellet, J. P. Anti-Cancer Drugs 1999, 10, 489-504), and APP C99-induced cell death (Jin, L.-W.; Hua, D. H.; Shie, F.-S.; Maezawa, I.; Sopher, B.; Martin, G. M. J. Mol. Neurosci. 2002, 19, 57-61) were followed. […]

CETP = molecular target: T1, CETP (Homo sapiens, UniProt P11597); assay: inhibition of CETP; assay type: biochemical
T1 sequence (P11597 18-493): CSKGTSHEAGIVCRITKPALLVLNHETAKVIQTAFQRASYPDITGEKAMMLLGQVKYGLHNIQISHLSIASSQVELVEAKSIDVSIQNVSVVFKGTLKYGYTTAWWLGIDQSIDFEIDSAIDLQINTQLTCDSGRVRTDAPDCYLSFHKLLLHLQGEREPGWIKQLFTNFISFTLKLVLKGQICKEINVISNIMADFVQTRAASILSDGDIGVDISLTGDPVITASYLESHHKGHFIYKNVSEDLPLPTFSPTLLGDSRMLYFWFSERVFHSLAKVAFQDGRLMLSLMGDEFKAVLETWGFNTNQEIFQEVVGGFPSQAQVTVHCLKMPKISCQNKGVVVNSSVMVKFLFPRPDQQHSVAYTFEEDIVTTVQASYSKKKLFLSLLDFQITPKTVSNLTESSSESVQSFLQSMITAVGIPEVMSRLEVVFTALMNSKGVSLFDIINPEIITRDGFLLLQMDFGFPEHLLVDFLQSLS
Excerpt: The reported procedures for the inhibitory activities of ACAT (Tomoda, H.; Nishida, H.; Masuma, R.; Cao, J.; Okuda, S.; Omura, S. J. Antibiot. 1991, 44, 136-143), CETP (Tomoda, H.; Tabata, N.; Masuma, R.; Si, S.-Y.; Omura, S. J. Antibiot. 1998, 51, 618-623; D. H. Hua et al. Tetrahedron 2003, 59, 4795-4803), L1210 tumor cells (Perchellet, E. M.; Ladesich, J. B.; Magill, M. J.; Chen, Y.; Hua, D. H.; Perchellet, J. P. Anti-Cancer Drugs 1999, 10, 489-504), and APP C99-induced cell death (Jin, L.-W.; Hua, D. H.; Shie, F.-S.; Maezawa, I.; Sopher, B.; Martin, G. M. J. Mol. Neurosci. 2002, 19, 57-61) were followed.
ACAT mediates the esterification of intracellular cholesterol and is believed to play a key role in lipoprotein metabolism and atherogenesis (for a review: Suckling, K. E.; Stange, E. F. J. Lipid Res. 1985, 26, 647-671). […] The inhibition of CETP with these three compounds was then studied. CETP, a hydrophobic neutral glycoprotein, mediates the transfer of cholesteryl ester from high-density lipoprotein to low-density lipoprotein (For a review: Tall, A. R. J. Lipid Res. 1993, 34, 1255-1274). […] The N-(p-nitrophenyl)aspartamide portion of 104 was attached in order to study whether 104 was a substrate of […] (For a review: VIIIa, P.; Kaufmann, S. H.; Earnshaw, W. C. Trends Biochem. Sci. 1997, 22, 388-393). […] Compound 105 is cytotoxic to L1210 tumor cells, with IC50=30 μM. Aggarwal et al., J. Chem. Soc., Perkin Trans I (1999) 3315-3321 is incorporated by reference to the extent not inconsistent with the disclosure herewith.

[1] = molecular target: T2, Human aldose reductase (AR) (Homo sapiens, UniProt P15121); assay: human AR inhibition assay (enzyme assay, NADPH absorption at 340 nm); assay type: biochemical; details: Table 4
T2 construct: made in house; host or cells: E. coli
Method: Human aldose reductase (AR) was obtained from overexpression of the human AR gene in an E coli system and was purified by column chromatography using a talon metal affinity column and eluted with a gradient mixture of Tris, NaCl buffer and imidazole solution. The human AR inhibition assay was conducted as follows. In a sample cuvette, 25 mM of D-xylose (75 mg/mL) and 0.15 mM of reduced nicotinamide adenine dinucleotide phosphate (NADPH) (4 mg/mL), and various amount of the inhibitor [in PBS (phosphate buffer saline) solution; the concentration of the inhibitor was determined using UV spectroscopy based on εmax at λmax of the drug] in 700 uL of PBS (a solution made of 1.44 g of Na2HPO4, 0.24 g KH2PO4, 0.2 g KCl, and 8 g NaCl in 1 L of distilled water) buffer (pH=6.1) solution and 200 uL of the AR enzyme (a final volume of 1 mL was obtained). The intensity of absorption of NADPH (λmax=340 nm) was measured. When xylose is reduced to xylitol, NADPH is converted into NADP and the absorption at 340 nm decreases. When AR is inhibited by the drug, the absorption at 340 nm of NADPH remains unchanged. Each assay was repeated three times and an average IC50 value was obtained.

[2] = system: N/N 1003 lens epithelial cells; assay: tissue culture assay: galactitol formation from galactose in lens epithelial cells (GC/MS); assay type: cell-based; details: Epithelial cell; 10 uM inhibitor; 40 mM galactose media, lens epithelial cells, 48 hours; number of trials in parenthesis
Method: The activity of the drugs is tested in various ways, including tissue culture assays and assays testing aldose reductase inhibition. For the tissue culture assay, a lens epithelial cell line is grown in galactose with or without the drug. Cells are tested for polyol accumulation by GC/mass spectrometry. Levels of PKC are tested in homogenized cell pellets or in samples of lens, retina or sciatic nerves from treated patients. Tissue is homogenized and tested for PKCγ levels using Western blots. These procedures are described in more detail below.
The ability of the drugs to inhibit galactitol formation from galactose was also studied in N/N 1003 lens epithelial cells. Two sets of lens cells were grown in media with […] 40 mM galactose. Various concentrations of inhibitors were added initially and the cells were grown for 48 hours. The cells were lysed and galactose and galactitol were extracted out and the concentrations were determined using gas chromatography and mass spectrometry by silylating the crude extract with excess of trimethylsilyl chloride, trimethylsilyl imidazole and pyridine at 70° C. for 1 h.
40 mM galactose media was supplemented with 10 uM inhibitor and fed to lens epithelial cells for 48 hours.

IC50 (ACAT) | IC50 (CETP) | Compound | EC50 (MC65 cells) | also measured
> 500 µM | > 250 µM | Cc1cc2c(c(=O)o1)C=C1CC[C@H](C(C)Cn3cnc(N)c4ncnc3-4)C[C@@H]1O2 (mixture of isomers) [Compound 106, (5aS,7S)-7-[(1R) and (1S)-2-(N-3-adenyl)-1-methylethyl]-3-methyl-1H,7H-5a,6,8,9-tetrahydro-1-oxopyrano[4,3-b][1]benzopyran] | 0.15 µM | protection of MC65 cells from death (in words) (MC65 cells): protected from death
150 µM | 75 µM | CC(CO)[C@H]1CC[C@@H]2[C@H](C1)Oc1cc(CC(=O)OCc3ccccc3)oc(=O)c1[C@H]2O (mixture of isomers) [Compound 103, Benzyl (5aS,7S,9aS,10S)-{10-hydroxy-7-[(1R) and (1S)-2-hydroxy-1-methylethyl]-1H,7H-5a,6,8,9-tetrahydro-1-oxopyrano[4,3-b][1]benzopyran-3-yl}acetate] |  | 
167 µM |  | C=C(C)[C@H]1CCC2=Cc3c(cc(C)oc3=O)O[C@H]2C1 [Compound 108] | > 10 µM | 
310 µM | > 100 µM | CC(CO)[C@H]1CCC2=Cc3c(cc(CC(=O)OCc4ccccc4)oc3=O)O[C@H]2C1 (mixture of isomers) [Compound 102, Benzyl (5aS,7S)-{7-[(1R)- and (1S)-2-hydroxy-1-methylethyl]-1H,7H-5a,6,8,9-tetrahydro-1-oxopyrano[4,3-b][1]benzopyran-3-yl}acetate] |  | 
157 µM | > 100 µM | C=C(C)[C@H]1CCC2=Cc3c(cc(CC(=O)OCc4ccccc4)oc3=O)O[C@H]2C1 [Compound 101, Benzyl (5aS,7S)-{7-isopropenyl-1H,7H-5a,6,8,9-tetrahydro-1-oxopyrano[4,3-b][1]benzopyran-3-yl}acetate] |  | 

The next lines start with the molecule.

Compound | IC50 (ACAT) | IC50 (CETP) | EC50 (MC65 cells) | also measured
Nc1ncnc2nc[nH]c12 [Adenine, reference compound] |  |  | > 10 µM | protection of MC65 cells from death (in words) (MC65 cells): no activity
O=C(O)C(O)Cc1cc2c(c(=O)o1)C=C1CCCCC1O2 (stereo not drawn) [Compound 3, 2-Hydroxy-3-{1H,7H-5a,6,8,9-tetrahydro-1-oxopyrano[4,3-b][1]benzopyran-3-yl}-propanoic acid] |  |  |  | IC50 ([1]; read-out: IC50 values obtained from the enzyme assay (aldose reductase)): > 500 µM; inhibition at 10 µM [2]: < 10%
C=C(C)[C@H]1CCC2=Cc3c(cc(CC(=O)O)oc3=O)O[C@H]2C1 [Compound 6, {(5aS,7S)-7-Isopropenyl-1H,7H-5a,6,8,9-tetrahydro-1-oxopyrano[4,3-b][1]-benzopyran-3-yl}acetic acid] |  |  |  | IC50 values obtained from the enzyme assay (aldose reductase) [1]: No significant inhibition detected
Cc1cc2c(c(=O)o1)C=C1CC[C@H](C(C)CNc3ncnc4[nH]cnc34)C[C@@H]1O2 (mixture of isomers) [Compound 107, (5aS,7S)-7-[(1R) and (1S)-2-(N10-Adenyl)-1-methylethyl]-3-methyl-1H,7H-5a,6,8,9-tetrahydro-1-oxopyrano[4,3-b][1]benzopyran] |  |  | > 3 µM | protection of MC65 cells from death (in words) (MC65 cells): inactive
O=C(O)CCc1cc2c(c(=O)o1)C=C1CCCCC1O2 (stereo not drawn) [Compound 5a] |  |  |  | water solubility (water solubility): water soluble
CC(CO)[C@H]1CCC2=Cc3c(cc(CC(=O)O)oc3=O)O[C@H]2C1 (stereo partly drawn) [Compound 7] |  |  |  | IC50 values obtained from the enzyme assay (aldose reductase) [1]: No significant inhibition detected
